Source: patent publication US20110178139A1, “Pyridoxamine for the Treatment of Diabetic Kidney Disease” (priority 2004, published 2011)

Columns and labels:
[1] = system: patients with type 1 and type 2 DM and overt nephropathy; assay: Randomized, double-blind, placebo-controlled, multicenter trial (PYR206) of PYR 50 mg b.i.d. for six months; assay type: in vivo, human
Method: A randomized, double-blind, placebo-controlled, multicenter trial which examined the safety profile of pyridoxamine dihydrochloride (PYR) in patients with type 1 and type 2 DM and overt nephropathy was conducted. 128 patients (48 type 1, 80 type 2) at 32 sites were randomized to receive either PYR 50 mg twice a day (b.i.d) or placebo for six months, 58 patients in each group completed the study. Groups were well matched at baseline for age, race, gender, blood pressure, hemoglobin AlC (HbAlC), and angiotensin converting enzyme inhibitor (ACEI)/angiotensin receptor blocker (ARB) use.
Baseline characteristics of the patients included serum creatinine=1.27 mg/dL and urinary albumin excretion=868 mg/12 h in treatment, versus 1.33 mg/dL and 1055 mg/12 h in placebo groups (differences not significant, NS).
In addition, the urinary levels of TGF beta in the subjects completing the PYR206 study (combined type 1 and type 2 patients) were tested. This growth factor is an important and accepted marker of renal disease, since it initiates or controls a cascade of cellular changes (from diabetes and other diseases) that lead to mesangial expansion and eventually fibrosis in the kidney. […] This is strong evidence of the action of PYR in retarding or halting the nephropathy due to the diabetes.

[2] = system: diabetic nephropathy patients; assay: Separate study: six months of escalating doses of pyridoxamine dihydrochloride in addition to standard of care; assay type: in vivo, human
Method: In a separate study, diabetic nephropathy patients received six months of treatment of escalating doses of pyridoxamine dihydrochloride (50 mg, 100 mg, and 250 mg), administered orally via capsules twice daily as follows:
50 mg bid for 2 weeks, then if tolerated:
10 mg bid for 2 weeks, then if tolerated:
The study drug was administered in addition to standard of care therapy. The patient population consisted of male and female patients between 18 and 70 years of age with diabetic nephropathy associated with type 1 or type 2 diabetes, serum creatinine of […], and macroalbuminuria confirmed with baseline urinary albumin excretion≧300 mg/24 his.
84 patients received at least one dose of the study drug (57 pyridoxamine dihydrochloride; 27 placebo.
Baseline characteristics of the patients included serum creatinine of 1.91 mg/dL and urinary albumin excretion of 957 mg/12 h in treatment, versus 1.95 mg/dL and 1224 mg/12 h in placebo groups.

[3] = PYR 50 mg b.i.d., six months, no significant difference vs placebo
[4] = escalating doses 50, 100, 250 mg bid, six months, no significant difference vs placebo

Cc1ncc(CO)c(CN)c1O.Cl.Cl [PYR, pyridoxamine dihydrochloride]
serious adverse events [1, 3]: 11%
study discontinuation due to AE's [1, 3]: 6%
treatment-related adverse events [1, 3]: 26%
scored neurotoxicity testing ([1]; PYR 50 mg b.i.d., six months, vs placebo): No significant differences
mean rate of rise in serum creatinine ([1]; all patients, 50 mg b.i.d., six months, p=0.0065 by ANOVA vs placebo): 0.178 mg/dL/yr
rise in mean urinary albumin excretion rate ([1]; all patients, p=0.017, ANOVA vs placebo): 122 mg/12 h/yr
decrease in urinary TGF beta levels (pg TGF/mg Cr) ([1]; combined type 1 and type 2 patients completing the study, six months, preliminary analysis, placebo increased 43%): about 24%
rise in albuminuria ([1]; patients with baseline HbAlC over 7.275%, p=0.0282, ANOVA): reversed
rate of rise in serum creatinine ([1]; patients with baseline serum creatinine ≧1.3 mg/dL, p<0.0001 vs placebo): 0.17 mg/dL/yr
rate of rise in serum creatinine ([1]; type 2 patients taking ACE-I or ARB with baseline serum creatinine ≧1.3 mg/dL (predefined subgroup), p<0.0057 vs placebo): 0.138 mg/dL/yr
incidence of sensory system neurologic adverse events ([1]; vs placebo (Table 5)): significantly reduced
serious adverse events ([2]; escalating doses 50, 100, 250 mg bid, six months, higher rate than placebo (3.7%)): 21.1%
study discontinuation due to AE's [2, 4]: 8.8%
treatment-related adverse events [2, 4]: 35.1%
rate of rise in serum creatinine ([2]; type 2 patients taking ACE-I or ARB with baseline serum creatinine ≧1.3 mg/dL (predefined subgroup), p<0.0001 vs placebo): 0.144 mg/dL/yr
